Experimental data published in BindingDB's records for doi:10.1021/jm00024a011 (Boehringer Ingelheim Pharmaceuticals, 1995).

Biological target: T1, Gag-Pol polyprotein [600-1027,R876K]/[600-1155] (Human immunodeficiency virus 1, UniProt P03366, R876K)
T1 construct: 600-1027; 600-1155
Assay: HIV-1 RT Assay

SMILES | IC50 (pH 7.8, 22 °C) [nM] | IC50 [nM]
O=C1Nc2c(CO)ccnc2N(C2CC2)c2ncccc21 | 3000 | 
Nc1ccc(OCc2ccnc3c2NC(=O)c2cccnc2N3C2CC2)cc1 [7-(4-aminophenoxymethyl)-2-cyclopropyl-2,4,9,15-tetraazatricyclo[9.4.0.0^{3,8}]pentadeca-1(11),3,5,7,12,14-hexaen-10-one] |  | 100
